Test results reported in US9351818B2, “Process for the synchronization of ovulation for timed breeding without heat detection” (priority 2003, dated 2016).

Key:
mature postpartum sows = test: Intravulvar deslorelin at estrus detection with AI in mature postpartum sows (Example 2); assay type: in vivo, swine; details: 50 μg deslorelin acetate intravulvar at first estrus detection, then AI again if in estrus the next day
Description: Sows were assigned randomly in blocks of two to either control or to be injected intravulvar with 50 mcg of deslorelin in SAIB at the time of estrus detection for sows first detected in estrus in the a.m. and 12 hours later for those first detected in estrus in the p.m. Treated animals were bred AI upon detected estrus and again 24 hours later if still in estrus. Controls received a saline injection on first detected estrus behavior estrus detection and were bred according to the farm's normal procedures.

postpartum sows = test: Single timed deslorelin injection 96 hours post-weaning with single timed insemination, no estrus detection (Example 3); assay type: in vivo, swine; details: 50 mcg in SAIB at 96 hours post-weaning; single insemination 28+/-2 hours later
Description: Approximately 170 postpartum sows were randomly divided into two equal groups comprised of controls and treated. Following weaning, the controls were detected for estrus and bred following the normal standard operating procedures for the farms on which they resided. The treated sows received a 50 mcg dose of deslorelin in SAIB at 96 hours post-weaning and were bred with a single insemination 28+/−2 hours later with no regard to estrus detection. The sows were examined for pregnancy by ultrasound at 21 days and slaughtered around 28 days post breeding. The entire reproductive tract was removed and corpora lutea and embryos were counted.

For `CCNC(=O)[C@@H]1CCCN1C(=O)[C@H](CCCN=C(N)N)NC(=O)[C@H](CC(C)C)NC(=O)[C@@H](Cc1c[nH]c2ccccc12)NC(=O)[C@H](Cc1ccc(O)cc1)NC(=O)[C@H](CO)NC(=O)[C@H](Cc1c[nH]c2ccccc12)NC(=O)[C@H](Cc1cnc[nH]1)NC(=O)[C@@H]1CCC(=O)N1` [Deslorelin, deslorelin], the “Pregnancy Rate” value (mature postpartum sows) was 91% and the “Embryo Survival” value (postpartum sows) was 64%.
